Test results published in patent publication US20210244721A1, “SMALL MOLECULE ENTEROVIRUS INHIBITORS AND USES THEREOF” (priority 2020, published 2021).
Where two headings read alike, the source gives them in different places.

Columns and labels:
[1] = test system: EV-D68 US/KY/14-18953 virus; assay: CPE assay, EV-D68 US/KY/14-18953 in RD cells; assay type: cell-based, Enterovirus D68 (EV-D68); conditions: EV-D68 US/KY/14-18953, RD cells
in vitro [2] = conditions: human
RD cells [3] = conditions: human, 3 days
EV-D68 UA/IL/14-18952 = assay: CPE assay, EV-D68 UA/IL/14-18952 in RD cells; conditions: EV-D68 UA/IL/14-18952, RD cells
RD cells [4] = assay: Cytotoxicity, neutral red method, RD cells; conditions: RD cells, neutral red method
EV-D68 US/MO/14-18949 = assay: CPE assay, EV-D68 US/MO/14-18949 in RD cells; conditions: EV-D68 US/MO/14-18949, RD cells
EV-D68 US/IL/14-18956 = assay: CPE assay, EV-D68 US/IL/14-18956 in RD cells; conditions: EV-D68 US/IL/14-18956, RD cells
A549 = assay: Cytotoxicity in A549 cells
Protocol: (§1) The cytotoxicity of each compound was determined using the neutral red cell viability assay. The assay was performed under similar conditions (incubation temperature, time, and media) as the CPE, but excluded viral infection. Data acquisition and analysis (CC50) was performed similarly to the antiviral CPE assay, and all values are from triplicate experiments.

HeLa = assay: Cytotoxicity in HeLa cells
Protocol: as §1

EV-D68 US/MO/14-18947 = assay: CPE assay, EV-D68 US/MO/14-18947 in RD cells; conditions: EV-D68 US/MO/14-18947, RD cells
[5] = Mouse microsomal stability; assay type: in vitro ADME; conditions: mouse liver microsomes
Protocol: Test compounds were incubated at 37° C. with liver microsomes (mouse or human) (Xenotech) at 1 μM drug concentration in the presence of a NADPH regenerating system at 0.5 mg/ml microsomal protein. Testosterone (3A4 substrate), Propafenone (2D6), and Diclofenac (2C9) were included as positive controls. Compounds were incubated with microsomes in the presence of a NADPH regenerating system (Sigma, Cat. No. N0505, Lot SLBH3107V). Aliquots at 0, 5, 10, 20, 30 and 60 minutes post incubation were collected and immediately mixed with cold acetonitrile containing internal standard (IS). Compounds incubated with microsomes without NADPH regenerating system for 60 minutes were also included. All the samples were analyzed by LC/MS/MS; disappearance of test compound were assessed based on peak area ratios of analyte/IS. Following equations were applied to calculate the microsome clearance: […]

CVB3 = assay: CPE assay, CVB3 in Vero C1008 cells; assay type: cell-based, coxsackievirus B3 (CVB3); conditions: Enterovirus B; CVB3, Vero C1008 cells; read-out: EC50
EV-A71 Tainan/4643/98 = assay: CPE assay, EV-A71 Tainan in RD cells; assay type: cell-based; conditions: Enterovirus A, EVA71; EV-A71 Tainan, RD cells; read-out: EC50
EV-A71 US/AK/16-19516 = assay: CPE assay, EV-A71 US/AK in RD cells; assay type: cell-based; conditions: Enterovirus A, EVA71
in vitro [6] = conditions: African green monkey

For `O=C(NC1C2CNCC21)c1cc(-c2cccs2)nc2ccccc12` (stereo not shown) [Compound 6bk, N-{3-azabicyclo[3.1.0]hexan-6-yl}b-2-(thiophen-2-yl)quinoline-4-carboxamide], the “SI = selectivity index (CC50/EC50)” value [1] was “SI50 = 5.4”, the EC50 ([1]; Enterovirus D, EVD68, RD, CPE assay, read-out: EC50) was 6.4 µM and the CC50 at 3 days (in vitro [2]) was 34.5 µM.
`Cc1ccc2c(c1)c1c3n2CCNC3CCC1` (stereo not shown) [drawing 10] showed a CC50 (RD cells [3]) of 19 ± 1.6 µM.
In the case of `O=C(NCCN1CCCC1)c1cc(-c2cccs2)nc2ccccc12` [drawing 130], the “SI (CC50/EC50)” value (EV-D68 UA/IL/14-18952) is reported as 571.4, the CC50 (RD cells [4]) is reported as 40 µM and the “SI (CC50/EC50)” value (EV-D68 US/MO/14-18949) is reported as 800. The “SI (CC50/EC50)” value (EV-D68 US/IL/14-18956) was 800, the CC50 (A549) was 83.2 µM and the CC50 (HeLa) was 41.7 µM. For the same compound, the “SI = selectivity index (CC50/EC50)” value [1] was 666.7, the “SI (CC50/EC50)” value (EV-D68 US/MO/14-18947) was 666.7 and the EC50 (EV-D68 US/MO/14-18947; Enterovirus D, EVD68, RD) was 60 nM.
With `CN(C)CCNC(=O)c1cc(-c2ccccc2)nc2ccccc12` [drawing 181] the half-life at 1 μM ([5]; 1 μM, NADPH, read-out: Mouse microsomal stability T1/2) was 22.4 min, the CLint scaled at 1 μM ([5]; scaled to liver) was 246 mL/min/kg and the EC50 (CVB3) was 300 nM. The EC50 (EV-A71 Tainan/4643/98) was 4.2 µM, the EC50 (EV-D68 US/MO/14-18947) was 200 nM and the EC50 (EV-A71 US/AK/16-19516) was greater than 10 µM.
`Cc1ccc2c(c1)c1c3n2CCNC3CCC1` (stereo not shown) [drawing 197] gave a CC50 at 3 days (in vitro [6]) of 40.5 µM, an EC50 (EV-A71 Tainan/4643/98) greater than 20 µM and a CC50 at 3 days (in vitro [2]) of 19 µM.
